Measurements taken from patent US11780833B2, “Emetine derivatives, prodrugs containing same, and methods of treating conditions using same” (HOWARD UNIVERSITY, priority 2011, dated 2023).
Read-outs that look alike come from different tables or passages of the source. Blank lines part the entries; values can stand above or below the compound they belong to.

What was measured:
[1] = system: LNCaP cells; assay: Cytotoxicity in LNCaP prostate cancer cell line; format: cell-based; settings: Homo sapiens, 168 h, read-out: IC50 after 7 days
Method: (§1) Studies were carried out on three prostate cancer cell lines: LNCaP, PC3, and DU145. […] There was not a significant difference in cytotoxicity of emetine between days 3 and 7. […] This increase is most likely due to the release of emetine from the dithiocarbamate salt over the time period. Further drug release studies at pH 5 confirmed about 45% release of emetine from the dithiocarbamate salt after 3-day incubation at this acidic pH maintained at 37° C., whereas release of emetine from the dithiocarbamate salt was not observed at physiological pH (e.g., about 7.4).
(§2) Various compounds prepared according to Examples 1-5 were studied in LNCaP, PC3, and DU145 cells.

[2] = system: PC3 cells; assay: cells; format: cell-based; settings: Homo sapiens
Method: as §1, §2
(§3) Various compounds prepared according to Example 6 were studied in DU145 and PC3 cells. The IC50 was determined at 3, 5, and 7 days.

[3] = pH-responsiveness by HPLC: emetine released in aqueous phosphate buffer; format: physicochemical; settings: 37° C.
Method: Relative rates of hydrolysis of the compounds listed in Table 5 below over a 48 hour period were evaluated using the percent emetine released from the acid catalyzed hydrolysis of compounds 1 to 6.
The compounds were incubated in aqueous phosphate buffer at pH 5.5, 6.5 and 7.4 at 37° C. over a 48 hour period. High performance liquid chromatography (HPLC) was employed to analyze the samples and quantify how much emetine was released. The compounds whose hydrolysis to emetine is shown in table 5 are all 100% stable at physiological pH 7.4 up to a 5 day exposure.

[4] = system: DU145 cells; assay: cells; format: cell-based; settings: Homo sapiens
Method: as §1, §2, §3

[5] = PC-3, 168 h, read-out: IC50 after 7 days
[6] = DU-145, 168 h, read-out: IC50 after 7 days
[7] = DU-145, 72 h, read-out: IC50 in DU145
[8] = DU-145, 120 h, read-out: IC50 in DU145
[9] = DU-145, 168 h, read-out: IC50 in DU145
[10] = PC-3, 72 h, read-out: IC50 in PC3
[11] = PC-3, 120 h, read-out: IC50 in PC3
[12] = PC-3, 168 h, read-out: IC50 in PC3

Compound: CCC1CN2CCc3cc(OC)c(OC)cc3C2CC1CC1c2cc(OC)c(OC)cc2CCN1S(C)(=O)=O (centres unmarked) [Compound 8b]
- IC50 [1]: 2.1 ± 0.284 µM
- IC50 [2, 5]: 4.01 ± 0.868 µM

Compound: CCC1CN2CCc3cc(OC)c(OC)cc3C2CC1CC1c2cc(OC)c(OC)cc2CCN1C(=O)/C=C(/CC(=O)O)C(=O)O (centres unmarked) [Compound 6]
- % Emetine at pH 5.5 ([3]; pH 5.5, 0 hr): 0.0%
- % Emetine at pH 5.5 ([3]; pH 5.5, 24 hrs): 33.9%
- % Emetine at pH 5.5 ([3]; pH 5.5, 48 hrs): 42.1%
- % Emetine at pH 6.5 ([3]; pH 6.5, 0 hr): 0.0%
- % Emetine at pH 6.5 ([3]; pH 6.5, 24 hrs): 13.4%
- % Emetine at pH 6.5 ([3]; pH 6.5, 48 hrs): 21.1%
- % Emetine at pH 7.4 to 8.0 over 72 hrs ([3]; pH 7.4 to 8.0, 0 hrs): 0.0%
- % Emetine at pH 7.4 to 8.0 over 72 hrs ([3]; pH 7.4 to 8.0, 24 hrs): 0.0%
- % Emetine at pH 7.4 to 8.0 over 72 hrs ([3]; pH 7.4 to 8.0, 48 hrs): 0.0%

Compound: CCC1CN2CCc3cc(OC)c(OC)cc3C2CC1CC1c2cc(OC)c(OC)cc2CCN1C(=S)Nc1ccc(OC)cc1 (centres unmarked) [Compound 11b]
- IC50 [4, 6]: 0.467 ± 0.025 µM

Compound: CCC1CN2CCc3cc(OC)c(OC)cc3C2CC1CC1c2cc(OC)c(OC)cc2CCN1C(=S)SCCCCC(=O)OC (centres unmarked) [Compound 4l]
- IC50 [1]: 2.31 ± 0.174 µM
- IC50 [4, 6]: 2.25 ± 0.084 µM
- IC50 [2, 5]: 4.86 ± 0.153 µM

Compound: CCC1CN2CCc3cc(OC)c(OC)cc3C2CC1CC1c2cc(OC)c(OC)cc2CCN1C(=S)NCc1ccc(OC)cc1 (centres unmarked) [Compound 11f]
- IC50 [2, 5]: 5 ± 0.307 µM

Compound: CCC1CN2CCc3cc(OC)c(OC)cc3C2CC1CC1c2cc(OC)c(OC)cc2CCN1C(=S)NCCOC (centres unmarked) [Compound 11n]
- IC50 [2, 5]: > 10 µM

Compound: CCC1CN2CCc3cc(OC)c(OC)cc3C2CC1CC1c2cc(OC)c(OC)cc2CCN1S(=O)(=O)c1ccc(Cl)cc1 (centres unmarked) [Compound 8d]
- IC50 [4, 6]: 6.62 ± 0.167 µM
- IC50 [2, 5]: 4.21 ± 0.435 µM

Compound: CCC1CN2CCc3cc(OC)c(OC)cc3C2CC1CC1c2cc(OC)c(OC)cc2CCN1C(=O)/C=C(/C)C(=O)O (centres unmarked) [Compound 3]
- % Emetine at pH 5.5 ([3]; pH 5.5, 0 hr): 0.0%
- % Emetine at pH 5.5 ([3]; pH 5.5, 24 hrs): 78.1%
- % Emetine at pH 5.5 ([3]; pH 5.5, 48 hrs): 93.4%
- % Emetine at pH 6.5 ([3]; pH 6.5, 0 hr): 0.0%
- % Emetine at pH 6.5 ([3]; pH 6.5, 24 hrs): 76.8%
- % Emetine at pH 6.5 ([3]; pH 6.5, 48 hrs): 82.7%
- % Emetine at pH 7.4 to 8.0 over 72 hrs ([3]; pH 7.4 to 8.0, 0 hrs): 0.0%
- % Emetine at pH 7.4 to 8.0 over 72 hrs ([3]; pH 7.4 to 8.0, 24 hrs): 0.0%
- % Emetine at pH 7.4 to 8.0 over 72 hrs ([3]; pH 7.4 to 8.0, 48 hrs): 0.0%

Compound: CCCCNC(=S)N1CCc2cc(OC)c(OC)cc2C1CC1CC2c3cc(OC)c(OC)cc3CCN2CC1CC (centres unmarked) [Compound 11k]
- IC50 [1]: 1.31 ± 0.166 µM
- IC50 [4, 6]: 6.587 ± 0.0348 µM
- IC50 [2, 5]: 6.92 ± 0.17 µM

Compound: CCC1CN2CCc3cc(OC)c(OC)cc3C2CC1CC1c2cc(OC)c(OC)cc2CCN1C(=S)NCc1ccccc1 (centres unmarked) [Compound 11e]
- IC50 [1]: 2.06 ± 0.438 µM
- IC50 [4, 6]: 1.54 ± 0.254 µM
- IC50 [2, 5]: 6.92 ± 0.0711 µM

Compound: CCC1CN2CCc3cc(OC)c(OC)cc3C2CC1CC1c2cc(OC)c(OC)cc2CCN1C(=S)NCc1ccccc1Cl (centres unmarked) [Compound 11h]
- IC50 [4, 6]: 2.37 ± 0.112 µM

Compound: CCCCCCCCNC(=S)N1CCc2cc(OC)c(OC)cc2C1CC1CC2c3cc(OC)c(OC)cc3CCN2CC1CC (centres unmarked) [Compound 11m]
- IC50 [1]: 1.01 ± 0.249 µM
- IC50 [2, 5]: 1.43 ± 0.336 µM

Compound: CCC1CN2CCc3cc(OC)c(OC)cc3C2CC1CC1c2cc(OC)c(OC)cc2CCN1C(=S)SCC(=O)c1ccc(Cl)cc1 (centres unmarked) [Compound 4i]
- IC50 [4, 6]: 2.45 ± 0.162 µM
- IC50 [2, 5]: 2.69 ± 0.145 µM

- % Emetine at pH 5.5 ([3]; pH 5.5, 0 hr): 0.0%
- % Emetine at pH 5.5 ([3]; pH 5.5, 24 hrs): 19.2%
- % Emetine at pH 5.5 ([3]; pH 5.5, 48 hrs): 27.1%
- % Emetine at pH 6.5 ([3]; pH 6.5, 0 hr): 0.0%
- % Emetine at pH 6.5 ([3]; pH 6.5, 24 hrs): 8.2%
- % Emetine at pH 6.5 ([3]; pH 6.5, 48 hrs): 17.1%
- % Emetine at pH 7.4 to 8.0 over 72 hrs ([3]; pH 7.4 to 8.0, 0 hrs): 0.0%
- % Emetine at pH 7.4 to 8.0 over 72 hrs ([3]; pH 7.4 to 8.0, 24 hrs): 0.0%
- % Emetine at pH 7.4 to 8.0 over 72 hrs ([3]; pH 7.4 to 8.0, 48 hrs): 0.0%
Compound: CCC1CN2CCc3cc(OC)c(OC)cc3C2CC1CC1c2cc(OC)c(OC)cc2CCN1C(=O)/C=C\C(=O)O (centres unmarked) [Compound 4]

Compound: CCC1CN2CCc3cc(OC)c(OC)cc3C2CC1CC1c2cc(OC)c(OC)cc2CCN1C(=O)/C=C(/CC(=O)O)C(=O)O (centres unmarked) [Compound 15d2]
- IC50 [4, 7]: 2.58 ± 0.191 µM
- IC50 [4, 8]: 2.01 ± 0.0734 µM
- IC50 [4, 9]: 1.79 ± 0.134 µM
- IC50 [2, 10]: 3.06 ± 0.11 µM
- IC50 [2, 11]: 2.43 ± 0.118 µM
- IC50 [2, 12]: 2.89 ± 0.123 µM

Compound: CCC1CN2CCc3cc(OC)c(OC)cc3C2CC1CC1c2cc(OC)c(OC)cc2CCN1C(=S)SCC(=O)Nc1ccc(Br)cc1 (centres unmarked) [Compound 4g]
- IC50 [1]: 1.7 ± 0.187 µM
- IC50 [4, 6]: 2.79 ± 0.151 µM
- IC50 [2, 5]: 2.77 ± 0.146 µM

Compound: CCOC(=O)c1ccc(NC(=O)CSC(=S)N2CCc3cc(OC)c(OC)cc3C2CC2CC3c4cc(OC)c(OC)cc4CCN3CC2CC)cc1 (centres unmarked) [Compound 4c]
- IC50 [1]: 1.66 ± 0.564 µM
- IC50 [4, 6]: 2.47 ± 0.263 µM
- IC50 [2, 5]: 2.71 ± 0.192 µM

Compound: CCC1CN2CCc3cc(OC)c(OC)cc3C2CC1CC1c2cc(OC)c(OC)cc2CCN1C(=S)SCCN1C(=O)c2ccccc2C1=O (centres unmarked) [Compound 4d]
- IC50 [4, 6]: 3.05 ± 0.07 µM
- IC50 [2, 5]: 2.77 ± 0.06 µM

Compound: CCC1CN2CCc3cc(OC)c(OC)cc3C2CC1CC1c2cc(OC)c(OC)cc2CCN1C(=O)/C=C/C(=O)O (centres unmarked) [Compound 15a2]
- IC50 [4, 7]: 7.96 ± 0.312 µM
- IC50 [4, 8]: 5.73 ± 0.182 µM
- IC50 [4, 9]: 4.23 ± 0.418 µM
- IC50 [2, 10]: 8.39 ± 0.208 µM
- IC50 [2, 11]: 7.058 ± 0.0157 µM
- IC50 [2, 12]: 7.71 ± 0.151 µM
